Drawing on PubChem BioAssay (NCI), this text covers GI50 and TGI for 12 compounds.

Some test systems named below: 786-0 renal; COLO 205 colon; DU-145 prostate; IGROV1 ovarian; MDA-MB-435; NCI-H460 lung; SF-268 CNS; SN12C renal; T-47D breast; UACC-62 melanoma.
Common to all, as to test: NCI-60 cell line screen, 48 h

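In this assay, cells in 96-well plates receive the compound at five concentrations for 48 hours. Endpoints are linearly interpolated between the surrounding concentrations. GI50 is the concentration that inhibits growth by half. TGI marks complete inhibition of growth.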 Where only a bound is given, the exact number is not on record here.

As for `O=C1C=CC(=O)N1CCCCCCCCCCN1C(=O)C=CC1=O`, the GI50 is 16.2 µM with 786-0 renal; 2.15 µM in the test on COLO 205 colon; 15.8 µM in the test on DU-145 prostate; 7.89 µM with IGROV1 ovarian; 13.2 µM in the test with MDA-MB-435; 33.3 µM with NCI-H460 lung. The GI50 in the test with SF-268 CNS was 15.8 µM; with SN12C renal it was 15.1 µM; with T-47D breast, 15.3 µM; in the test on UACC-62 melanoma, 14.8 µM. For the same compound, the TGI in the test on 786-0 renal is 30.4 µM; in the test on COLO 205 colon, 5.62 µM; in the test with DU-145 prostate, 29.2 µM; in the test on IGROV1 ovarian, 24.7 µM; in the test with MDA-MB-435 it was 28.1 µM; in the test with NCI-H460 lung, more than 100 µM. Besides, the TGI in the test with SF-268 CNS turned out to be 30.4 µM; in the test with SN12C renal, 29.5 µM; with T-47D breast, 40.7 µM; in the test with UACC-62 melanoma, 28.2 µM.
With `COc1cccc(-c2cc(NCc3ccc4c(c3)OCO4)nc(N)n2)c1`, the GI50 with 786-0 renal was 0.0819 µM; in the test with COLO 205 colon, 0.0466 µM; with DU-145 prostate, 0.125 µM; in the test with IGROV1 ovarian, 0.143 µM; in the test with MDA-MB-435 it was 0.0175 µM; in the test on NCI-H460 lung, 0.0428 µM. Also, the GI50 in the test on SF-268 CNS was 3.29 µM; in the test on SN12C renal, 0.103 µM; in the test on T-47D breast it was 16.9 µM; in the test with UACC-62 melanoma it was 0.0546 µM. The TGI in the test with 786-0 renal was determined as 12.9 µM; in the test on COLO 205 colon, 0.198 µM; in the test with DU-145 prostate, 12.1 µM; with IGROV1 ovarian it was 19.1 µM; with MDA-MB-435, 0.0521 µM; in the test with NCI-H460 lung, 9.59 µM. The TGI with SF-268 CNS was determined as 22.9 µM; in the test on SN12C renal, 22 µM; in the test on T-47D breast it was 50.6 µM; with UACC-62 melanoma it was 18.1 µM.
As for `O=C(CN/C=C\C(=O)c1cc(Cl)ccc1Cl)c1ccccc1`, the GI50 in the test on 786-0 renal was 36.1 µM; in the test with COLO 205 colon, 34.9 µM; with DU-145 prostate it was 33.4 µM; in the test on IGROV1 ovarian, 29.1 µM; with MDA-MB-435, 19.2 µM; with NCI-H460 lung it was 32.3 µM. Besides, the GI50 in the test on SF-268 CNS is 24.8 µM; with SN12C renal it was 25.9 µM; in the test with T-47D breast, 33.4 µM; in the test with UACC-62 melanoma, 20.7 µM. The TGI in the test on 786-0 renal is more than 100 µM; in the test on COLO 205 colon, more than 100 µM; with DU-145 prostate it was more than 100 µM; with IGROV1 ovarian, more than 100 µM; in the test with MDA-MB-435 it was 45 µM; in the test with NCI-H460 lung, more than 100 µM. Also, the TGI in the test with SF-268 CNS was 83.4 µM; with SN12C renal it was 57.1 µM; in the test on T-47D breast it was more than 100 µM; with UACC-62 melanoma it was 52 µM.
Take `COc1cc2c(cc1C)NC(=O)/C2=C/c1c(C)nc2sc(C)cn12`: the GI50 in the test on 786-0 renal is more than 100 µM; with COLO 205 colon, 73.6 µM; in the test with DU-145 prostate it was more than 100 µM; in the test on IGROV1 ovarian it was 26.8 µM; with MDA-MB-435, 32.4 µM; in the test on NCI-H460 lung, 45.7 µM. Besides, the GI50 with SF-268 CNS is 85.3 µM; in the test with SN12C renal, 74.5 µM; in the test with T-47D breast it was 64.4 µM; in the test with UACC-62 melanoma it was 38.9 µM. The TGI in the test on 786-0 renal, in the test on COLO 205 colon, in the test with DU-145 prostate, in the test with IGROV1 ovarian, in the test on MDA-MB-435 and with NCI-H460 lung was more than 100 µM throughout. The TGI in the test on SF-268 CNS, in the test on SN12C renal, in the test on T-47D breast and in the test with UACC-62 melanoma was more than 100 µM in each case.
With `COc1ccc2c(c1)N(CCO)C1=C(C(=O)OC1)C2c1cccc(Br)c1` (configuration not stated), the GI50 was 0.12 µM with 786-0 renal; 0.103 µM in the test on COLO 205 colon; 0.156 µM in the test on DU-145 prostate; 0.088 µM in the test on IGROV1 ovarian; 0.0225 µM in the test with MDA-MB-435; 0.0477 µM in the test with NCI-H460 lung. The GI50 in the test on SF-268 CNS was 0.0864 µM; in the test with SN12C renal, 0.45 µM; in the test with T-47D breast, 26.1 µM; in the test with UACC-62 melanoma it was 0.048 µM. The TGI is 41.4 µM in the test with 786-0 renal; 0.464 µM with COLO 205 colon; 1.15 µM in the test on DU-145 prostate; more than 100 µM in the test on IGROV1 ovarian; 0.0623 µM with MDA-MB-435; 5.05 µM with NCI-H460 lung. Besides, the TGI with SF-268 CNS is 21.3 µM; in the test with SN12C renal it was more than 88.1 µM; in the test on T-47D breast, more than 100 µM; in the test on UACC-62 melanoma, 44.5 µM.
On to `NS(=O)(=O)c1ccc(NCc2cnc3ccccc3c2)cc1`, for which the TGI with 786-0 renal, in the test with COLO 205 colon, with DU-145 prostate, in the test with IGROV1 ovarian, in the test with MDA-MB-435 and in the test with NCI-H460 lung was more than 100 µM throughout. For the same compound, the TGI in the test on SF-268 CNS, in the test on SN12C renal, in the test with T-47D breast and in the test on UACC-62 melanoma was more than 100 µM in each case.
For the compound `O=C(O)C#Cc1ccc([N+](=O)[O-])cc1`, the TGI in the test with 786-0 renal, with COLO 205 colon, in the test with DU-145 prostate, with IGROV1 ovarian, in the test with MDA-MB-435 and in the test with NCI-H460 lung was more than 100 µM throughout. The TGI in the test with SF-268 CNS, in the test on SN12C renal, with T-47D breast and in the test on UACC-62 melanoma was more than 100 µM each time.
For the compound `O=C1[C@H](c2ccccc2)C2c3ccccc3CCN12` (some centres not stated), the GI50 in the test on 786-0 renal, in the test on COLO 205 colon, with DU-145 prostate, in the test with IGROV1 ovarian, in the test on MDA-MB-435 and with NCI-H460 lung was more than 100 µM each time. In addition, the GI50 in the test with SF-268 CNS, in the test on SN12C renal, in the test on T-47D breast and in the test on UACC-62 melanoma was more than 100 µM in each case. The TGI in the test on 786-0 renal, with COLO 205 colon, in the test with DU-145 prostate, in the test with IGROV1 ovarian, in the test on MDA-MB-435 and in the test on NCI-H460 lung was more than 100 µM in each case. Besides, the TGI with SF-268 CNS, in the test on SN12C renal, with T-47D breast and in the test on UACC-62 melanoma was more than 100 µM each time.
Turning to `Cc1cc(NC(=O)C(=O)Cc2nc3ccccc3s2)ccc1Cl`, the TGI in the test on 786-0 renal, in the test with COLO 205 colon, in the test on DU-145 prostate, in the test with IGROV1 ovarian, in the test on MDA-MB-435 and with NCI-H460 lung was more than 100 µM in each case. Further, the TGI in the test on SF-268 CNS, in the test on SN12C renal, in the test on T-47D breast and in the test on UACC-62 melanoma was more than 100 µM in each case.
Turning to `OCCCNC(=S)Nc1ccc(-c2nc3ccccc3s2)cc1`, the GI50 with 786-0 renal is 22.8 µM; in the test on COLO 205 colon, 30 µM; in the test with DU-145 prostate, 40.9 µM; in the test with IGROV1 ovarian, 13.5 µM; with MDA-MB-435 it was 17.9 µM; in the test on NCI-H460 lung, 25.9 µM. Further, the GI50 in the test on SF-268 CNS was 22.5 µM; in the test on SN12C renal it was 22.8 µM; in the test with T-47D breast it was 16.9 µM; with UACC-62 melanoma, 18.6 µM. Also, the TGI with 786-0 renal was 55.2 µM; in the test with COLO 205 colon, more than 100 µM; in the test on DU-145 prostate it was more than 100 µM; in the test with IGROV1 ovarian it was 95.4 µM; in the test on MDA-MB-435, 50.8 µM; with NCI-H460 lung, more than 100 µM. Also, the TGI with SF-268 CNS is more than 100 µM; with SN12C renal, 54.8 µM; in the test with T-47D breast, more than 100 µM; with UACC-62 melanoma, 41 µM.
With `COc1ccc2cc(C(=O)/C=C/c3ccccc3OC)ccc2c1`, the GI50 was 5.59 µM in the test on 786-0 renal; 3.56 µM in the test on COLO 205 colon; 2.63 µM in the test on DU-145 prostate; 0.769 µM with IGROV1 ovarian; 0.57 µM in the test with MDA-MB-435; more than 20.6 µM in the test with SF-268 CNS. The GI50 is 1.97 µM in the test on SN12C renal, 2.58 µM in the test with T-47D breast and 1.88 µM in the test on UACC-62 melanoma. For the same compound, the TGI in the test with 786-0 renal was 21.5 µM; in the test on COLO 205 colon it was 49.4 µM; in the test on DU-145 prostate, 8.07 µM; in the test with IGROV1 ovarian it was 4.06 µM; in the test on MDA-MB-435, 5.03 µM; in the test on NCI-H460 lung, more than 51.7 µM. Further, the TGI with SF-268 CNS is more than 100 µM; with SN12C renal, 6.82 µM; in the test with T-47D breast, more than 89.1 µM; with UACC-62 melanoma, 11.9 µM.
Regarding `CCCNNC(=O)c1ccc(CNC(=O)/C=C/c2ccccc2)cc1`, the GI50 with 786-0 renal was 0.314 µM; with COLO 205 colon, 0.0909 µM; with DU-145 prostate it was 0.218 µM; in the test on IGROV1 ovarian, 0.185 µM; in the test with MDA-MB-435 it was 0.2 µM; in the test on NCI-H460 lung, 0.286 µM. The GI50 is 0.316 µM in the test on SF-268 CNS, 0.313 µM in the test on SN12C renal, 0.13 µM in the test on T-47D breast and 0.0825 µM in the test with UACC-62 melanoma. Besides, the TGI with 786-0 renal is more than 100 µM; in the test with COLO 205 colon it was 0.292 µM; in the test with DU-145 prostate, more than 100 µM; with IGROV1 ovarian, 1.1 µM; in the test with NCI-H460 lung it was more than 100 µM; in the test with SN12C renal it was more than 100 µM. For the same compound, the TGI in the test with T-47D breast is 0.715 µM; in the test with UACC-62 melanoma, 0.249 µM.
